Where two headings read alike, the source gives them in different places.
How the values were obtained:
human GPR40 = molecular target: T1, human GPR40 (Homo sapiens, UniProt O14842); experiment: Activation of GPR40 protein: intracellular calcium change (Fluo-4, Flexstation 3) in transfected HEK-293 cells; type: cell-based; details: HEK-293 cells transfected with human GPR40
T1 construct: host or cells: HEK-293
Experimental: The activation of GPR40 protein by a novel 3-(4-(benzyloxy)phenyl)hex-4-ynoic acid derivative of the present invention was evaluated through the change in intracellular calcium concentration due to the activity of GPR40 protein. First, HEK-293 cells were transfected with human GPR40 DNA (Origene, RC218370) by using Fugene HD (Promega, E2311). […] After 24 hours, the cell culture medium was removed, and replaced with Dulbecco's Modified Eagle Medium (DMEM, 50 μl) supplemented with 1% fetal bovine serum (FBS). For the measurement of calcium concentration, 50 μL of Fluo-4 reagent (Invitrogen, F10471) was added to each well and cultured in a 37° C. incubator for 2 hours. […] Two hours after the initiation of the culture, the prepared samples were automatically injected into the cells using Flexstation 3 (Molecular Devices), and then, the change in intracellular calcium concentration was measured using SoftMax®Pro software for 120 seconds. Here, for a non-treated group, dimethylsulfoxide (DMSO) was injected into the cells to measure the change in calcium concentration. The GPR40 protein activity was calculated from the measured calcium concentration result values using equation 1 below, and the GPR40 activity (EC50 value) by the samples was obtained. […] GPR 40 activity=(intracellular calcium concentration increased by the sample)/(intracellular calcium concentration of the non-treated group)×100 [Equation 1]

Male Sprague Dawley rats = experiment: Oral glucose tolerance test (OGTT) 1; type: in vivo; details: Rattus norvegicus, 2 h; SD rats; 10 mg/kg oral; glucose 4 g/kg 30 minutes after; read-out: % AUC (reduction (%) of blood glucose AUC)
Experimental: Male Sprague Dawley rats aged 8-10 weeks old were acclimated for at least 7 days, and then only healthy animals were used for the oral glucose tolerance test (OGTT test). After fasting for 16-18 hours, five rats per group were randomly grouped and orally administered with the compounds prepared in Examples 2, 3, 4, 6, 9, 12, 14, 16, 25, 29, 36, 37, 41, 43, and 44 at a dose of 10 mg/kg each. Here, as for a non-treated group (vehicle), a solution (PEG 400/Tween 80/0.25% CMC, 5%/5%/90%, v/v/v) containing 5% polyethyleneglycol/5% tween 80/0.25% carboxymethylcelluluse (CMC) was orally administered at the same dose. Glucose (4 g/kg) was orally administered at a dose of 5 ml/kg 30 minutes after each sample was administered. Then, the blood glucose was measured by using Accu-chek active strip (Roche diagnostic Co.).

[1] = system: male Zucker diabetic fatty (ZDF) rats; experiment: OGTT by co-administration with biguanide-based drug (metformin), type II diabetic rat model; type: in vivo
[2] = system: Male Sprague Dawley (SD) rats; experiment: OGTT by co-administration with biguanide-based drug (metformin), SD rat model; type: in vivo
[3] = system: male diet-induced obesity (DIO) mice; experiment: OGTT by co-administration with thiazolidinedione (TZD)-based drug; details: oral
Experimental: Here, as for a non-treated group, 5% carboxymethyl cellulose (CMC) was orally administered at the same dose. In addition, 10 mg/kg of rosiglitazone and pioglitazone, which are well known as thiazolidinedione (TZD)-based drugs, were administered alone. […] The saline and test materials were orally administered at 5 ml/kg.
After 60 minutes, glucose (4 g/kg) was orally administered at a dose of 5 ml/kg. The blood glucose was measured by using Accu-chek active strip (Roche diagnostic Co.).

[4] = system: Male Sprague Dawley (SD) rats; experiment: Blood GLP-1 concentration increase after oral administration; type: in vivo, rat; details: Example 9 at 10-100 mg/kg, plasma after 20 minutes, FIG. 2
Experimental: After 20 minutes, about 0.5 ml of whole blood was collected by direct blood collection through cardiac injection, and the collected blood was immediately transferred to a sample tube treated with the dipeptidyl peptidase IV (DPPIV) inhibitor and ethylenediaminetetraacetic acid (EDTA), and placed in a container containing ice. The collected blood was centrifuged at 3600 rpm for 10 minutes to separate the plasma, and the separated plasma was measured for the plasma GLP-1 concentration through the GLP-1 ELISA kit (Millipore, USA).

[5] = system: male diet-induced obesity (DIO) mice; experiment: OGTT by co-administration with DPPIV inhibitor (sitagliptin), mouse model; type: in vivo; details: oral
Experimental: Here, as for a non-treated group, 5% carboxymethyl cellulose (CMC) was orally administered at the same dose. […] Each test sample and 0.5% carboxymethyl cellulase (CMC) were orally administered at 5 ml/kg.

[6] = system: Male Sprague Dawley (SD) rats; experiment: OGTT by co-administration with DPPIV inhibitor (linagliptin), SD rat model; type: in vivo; details: Example 9 3 mg/kg alone
Experimental: The blood glucose was measured by using Accu-chek active strip (Roche diagnostic Co.).

[7] = system: male diet-induced obesity (DIO) mice; experiment: OGTT by co-administration with sulfonylurea-based drug (glimepiride); type: in vivo, mouse; details: oral
Experimental: Here, as for a non-treated group, 5% carboxymethyl cellulose (CMC) was orally administered at the same dose. In addition, 10 mg/kg of glimepiride, which is well known as a sulfonylurea-based drug, was administered alone. […] The saline and test materials were orally administered at 5 ml/kg.

[8] = system: Male Sprague Dawley (SD) rats; experiment: OGTT by co-administration with SGLT2 inhibitor-based drug (empagliflozin); type: in vivo, rat
Experimental: The experimental results were expressed as mean and standard error (Mean±SE), and the differences between the control and the experimental groups were tested by one-way ANOVA (a Dunnett method) of “GraphPad Prism 4” software (Graphpad co., La Jolla, Calif., USA). Here, p<0.05 was considered statistically significant.

[9] = system: INS-1 cells (rat insulinoma cell line); experiment: Insulin secretion experiment; type: cell-based; details: 25 mM glucose
Experimental: INS-1 cells (rat insulinoma cell line) were seeded in a 24-well plate at 5×10^5 cells/well, and cultured for 48 hours. […] The amount of insulin secreted in the insulin ELISA kit (Morinaga) was measured using the supernatant of the cells after the experiment was ended (see Table 16 and FIG. 11).

[10] = intracellular calcium, read-out: EC50
[11] = values in text, read-out: concentration activating the GPR40 protein by 50% (EC50)

T1 sequence (O14842 whole entry): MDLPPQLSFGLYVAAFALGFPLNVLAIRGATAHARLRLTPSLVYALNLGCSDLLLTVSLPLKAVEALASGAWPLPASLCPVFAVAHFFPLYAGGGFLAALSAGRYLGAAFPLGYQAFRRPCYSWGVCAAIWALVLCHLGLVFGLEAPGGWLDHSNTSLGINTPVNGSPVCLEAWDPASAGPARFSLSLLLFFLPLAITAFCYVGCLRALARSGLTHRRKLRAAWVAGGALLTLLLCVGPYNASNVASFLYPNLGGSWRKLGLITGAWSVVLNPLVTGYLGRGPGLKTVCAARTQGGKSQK

CC#C[C@@H](CC(=O)O)c1ccc(OCc2ccc(CN3CCCc4ccccc43)cc2)cc1 [Example 41, sodium (S)-3-(4-(4-((3,4-dihydroquinolin-1(2H)-yl)methyl)benzyloxy)phenyl)hex-4-ynoate]
EC50 (human GPR40; [10]): > 0.3 µM | inhibition in vivo at 10 mg/kg (Male Sprague Dawley rats): 23.7%

CC#C[C@@H](CC(=O)O)c1ccc(OCc2ccc(CN3CCN(c4ccc(OCOC)cc4)CC3)cc2)cc1 [Example 29, (S)-3-(4-(4-((4-(4-(methoxymethoxy)phenyl)piperazin-1-yl)methyl)benzyloxy)phenyl)hex-4-ynoic acid]
inhibition in vivo at 10 mg/kg (Male Sprague Dawley rats): 27.1%

CC#CC(CC(=O)O)c1ccc(OCc2ccc(CN3CCc4cc(OC)ccc4C3)cc2)cc1 (centres unmarked) [Example 16, 3-(4-(4-((6-methoxy-3,4-dihydroisoquinolin-2(1H)-yl)methyl)benzyloxy)phenyl)hex-4-ynoic acid]
EC50 (human GPR40; [10]): > 0.3 µM | inhibition in vivo at 10 mg/kg (Male Sprague Dawley rats): 21.1%

CN(C)C(=N)N=C(N)N [Metformin, metformin]
Reduction (%) of blood glucose AUC ([1]; metformin 50 mg/kg alone): 21.7% | Reduction (%) of blood glucose AUC ([2]; metformin 10 mg/kg alone): 3.9% | Reduction (%) of blood glucose AUC ([2]; metformin 50 mg/kg alone): 7.3% | Reduction (%) of blood glucose AUC ([2]; metformin 100 mg/kg alone): 10.0%

CC#CC(CC(=O)O)c1ccc(OCc2ccc(CN3CCc4ccccc4C3)cc2)cc1 (centres unmarked) [Example 12, 3-(4-(4-((3,4-dihydroisoquinolin-2(1H)-yl)methyl)benzyloxy)phenyl)hex-4-ynoic acid]
EC50 (human GPR40; [10]): < 0.2 µM | EC50 (human GPR40; [11]): ≤ 0.2 µM | inhibition in vivo at 10 mg/kg (Male Sprague Dawley rats): 31%

CC#C[C@@H](CC(=O)O)c1ccc(OCc2ccc(CN3CCc4cc(OC)ccc4C3)cc2)cc1 [Example 25, (S)-3-(4-(4-((6-methoxy-3,4-dihydroisoquinolin-2(1H)-yl)methyl)benzyloxy)phenyl)hex-4-ynoic acid]
EC50 (human GPR40; [10]): > 0.3 µM | inhibition in vivo at 10 mg/kg (Male Sprague Dawley rats): 24.6%

CC#CC(CC(=O)O)c1ccc(OCc2cccc(C3=CCC(=O)CC3)c2)cc1 (centres unmarked) [Example 4, 3-(4-(3-(4-oxocyclohex-1-enyl)benzyloxy)phenyl)hex-4-ynoic acid]
EC50 (human GPR40; [10]): > 0.3 µM | inhibition in vivo at 10 mg/kg (Male Sprague Dawley rats): 16.2%

CCc1ccc(CCOc2ccc(CC3SC(=O)NC3=O)cc2)nc1 (centres unmarked) [Pioglitazone, pioglitazone, reference compound]
Reduction (%) of blood glucose AUC ([3]; pioglitazone 10 mg/kg alone): 27.9%

CC#C[C@@H](CC(=O)O)c1ccc(OCc2ccc(CN3CCN(c4nc5ccccc5s4)CC3)cc2)cc1 [Example 43, (S)-3-(4-(4-((4-(benzo[d]thiazol-2-yl)piperazin-1-yl)methyl)benzyloxy)phenyl)hex-4-ynoic acid]
EC50 (human GPR40; [10]): > 0.3 µM | inhibition in vivo at 10 mg/kg (Male Sprague Dawley rats): 21.2%

CC#CC(CC(=O)O)c1ccc(OCc2ccc(C3=CCC4(CC3)OCCO4)cc2)cc1 (centres unmarked) [Example 3]
inhibition in vivo at 10 mg/kg (Male Sprague Dawley rats): 12.5%

CC#C[C@@H](CC(=O)O)c1ccc(OCc2cccc(C3=CCC4(CC3)OCCO4)c2)cc1 [Example 9, L-lysine (3S)-3-(4-(3-(1,4-dioxaspiro[4.5]dec-7-en-8-yl)benzyloxy)phenyl)hex-4-ynoate]
inhibition in vivo at 10 mg/kg (Male Sprague Dawley rats): 24.7% | blood GLP-1 concentration compared with the glucose treated group (Veh.) [4]: increased the blood GLP-1 concentration | Reduction (%) of blood glucose AUC ([5]; Example 9 30 mg/kg alone): 10.1% | Reduction (%) of blood glucose AUC ([5]; Example 9 100 mg/kg alone): 15.4% | Reduction (%) of blood glucose AUC [6]: 14.8% | Reduction (%) of blood glucose AUC ([7]; Example 9 10 mg/kg alone): 9.1% | Reduction (%) of blood glucose AUC ([7]; Example 9 30 mg/kg alone): 11.4% | Reduction (%) of blood glucose AUC ([7]; Example 9 100 mg/kg alone): 12.7% | Reduction (%) of blood glucose AUC ([1]; oral, Example 9 1 mg/kg alone): 34.2% | Reduction (%) of blood glucose AUC ([1]; oral, Example 9 3 mg/kg alone): 40.9% | Reduction (%) of blood glucose AUC ([1]; oral, Example 9 10 mg/kg alone): 37.8% | Reduction (%) of blood glucose AUC ([2]; Example 9 3 mg/kg alone): 14.5% | Reduction (%) of blood glucose AUC ([8]; Example 9 3 mg/kg alone): 14.8% | Insulin ([9]; Example 9 0.01 μM alone): 99 ng/mL | Reduction (%) of blood glucose AUC ([3]; Example 9 10 mg/kg alone): 24.9% | Reduction (%) of blood glucose AUC ([3]; Example 9 30 mg/kg alone): 20.2%

CC#CC(CC(=O)O)c1ccc(OCc2cccc(C3=CCC(O)CC3)c2)cc1 [Example 6, L-lysine 3-(4-(3-(4-hydroxycyclohex-1-enyl)benzyloxy)phenyl)hex-4-ynoate]
inhibition in vivo at 10 mg/kg (Male Sprague Dawley rats): 15.2%

OC[C@H]1O[C@@H](c2ccc(Cl)c(Cc3ccc(O[C@H]4CCOC4)cc3)c2)[C@H](O)[C@@H](O)[C@@H]1O [Empagliflozin, empagliflozin]
Reduction (%) of blood glucose AUC ([8]; empagliflozin 1 mg/kg alone): 6.5% | Reduction (%) of blood glucose AUC ([8]; empagliflozin 3 mg/kg alone): 9.2% | Reduction (%) of blood glucose AUC ([8]; empagliflozin 10 mg/kg alone): 29.5%

CCC1=C(C)CN(C(=O)NCCc2ccc(S(=O)(=O)NC(=O)N[C@H]3CC[C@H](C)CC3)cc2)C1=O [Glimepiride, glimepiride, reference compound]
Reduction (%) of blood glucose AUC ([7]; glimepiride 10 mg/kg alone): 44.6%

CC#C[C@@H](CC(=O)O)c1ccc(OCc2ccc(CN3CCN(c4ccc(OCCCS(C)(=O)=O)cc4)CC3)cc2)cc1 [Example 36, (S)-3-(4-(4-((4-(4-(3-(methylsulfonyl)propoxy)phenyl)piperazin-1-yl)methyl)benzyloxy)phenyl)hex-4-ynoic acid]
EC50 (human GPR40; [10]): > 0.3 µM | inhibition in vivo at 10 mg/kg (Male Sprague Dawley rats): 22.6%

CC#CC(CC(=O)O)c1ccc(OCc2cccc(C3=CCC4(CC3)OCCO4)c2)cc1 [Example 2, L-lysine 3-(4-(3-(1,4-dioxaspiro[4.5]dec-7-en-8-yl)benzyloxy)phenyl)hex-4-ynoate]
EC50 (human GPR40; [10]): > 0.3 µM | inhibition in vivo at 10 mg/kg (Male Sprague Dawley rats): 17.2%

COc1ccc(Cl)cc1C(=O)NCCc1ccc(S(=O)(=O)NC(=O)NC2CCCCC2)cc1 [Glibenclamide, glibenclamide]
Insulin ([9]; glibenclamide 0.1 μM alone, vehicle 58): 73 ng/mL | Insulin ([9]; glibenclamide 1 μM alone): 72 ng/mL

CC#C[C@@H](CC(=O)O)c1ccc(OCc2ccc(CN3Cc4ccccc4C3)cc2)cc1 [Example 37, sodium (S)-3-(4-(4-(isoindolin-2-ylmethyl)benzyloxy)phenyl)hex-4-ynoate]
inhibition in vivo at 10 mg/kg (Male Sprague Dawley rats): 28.5%

CC#CC(CC(=O)O)c1ccc(OCc2ccc(CN3CC=C(c4ccccc4)CC3)cc2)cc1 (centres unmarked) [Example 14, 3-(4-(4-((4-phenyl-5,6-dihydropyridin-1(2H)-yl)methyl)benzyloxy)phenyl)hex-4-ynoic acid]
EC50 (human GPR40; [10]): < 0.2 µM | EC50 (human GPR40; [11]): ≤ 0.2 µM | inhibition in vivo at 10 mg/kg (Male Sprague Dawley rats): 27.7%

CC#C[C@@H](CC(=O)O)c1ccc(OCc2ccc(CN3CCN(c4ncc(CCC)cn4)CC3)cc2)cc1 [Example 44, (S)-3-(4-(4-((4-(5-propylpyrimidin-2-yl)piperazin-1-yl)methyl)benzyloxy)phenyl)hex-4-ynoic acid]
EC50 (human GPR40; [10]): > 0.3 µM | inhibition in vivo at 10 mg/kg (Male Sprague Dawley rats): 22.8%
